Results on 26 molecules are retold here after patent publication US12209087B2, “AKT1 modulators” (Alterome Therapeutics, Inc., priority 2022, dated 2025).

SMILES strings stand for the structures.

The first assay deals with T1, full length AKT E17K (Homo sapiens, UniProt P31749, E17K).
T1 construct: host or cells: HEK-293 (ATCC CRL-1573)
T1 sequence (P31749 whole entry E17K): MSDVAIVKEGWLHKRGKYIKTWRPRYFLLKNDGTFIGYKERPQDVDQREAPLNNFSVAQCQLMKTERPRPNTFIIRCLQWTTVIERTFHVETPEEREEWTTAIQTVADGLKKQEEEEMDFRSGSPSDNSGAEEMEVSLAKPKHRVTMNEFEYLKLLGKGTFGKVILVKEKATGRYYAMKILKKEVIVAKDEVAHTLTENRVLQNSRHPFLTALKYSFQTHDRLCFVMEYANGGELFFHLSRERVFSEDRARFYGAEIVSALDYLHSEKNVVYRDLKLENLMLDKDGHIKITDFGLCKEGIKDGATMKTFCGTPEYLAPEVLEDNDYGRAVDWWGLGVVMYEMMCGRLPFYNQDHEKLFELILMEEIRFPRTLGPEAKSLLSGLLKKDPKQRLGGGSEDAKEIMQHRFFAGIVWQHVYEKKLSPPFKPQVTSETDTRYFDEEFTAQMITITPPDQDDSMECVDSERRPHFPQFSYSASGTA
Nature of the assay: NanoBRET Target Engagement (TE) Assay. The class given is cell-based. As to conditions: competitive displacement of tracer in cells, read-out: AKT1 E17K IC50. The procedure, abridged:
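Compound and tracer incubated 2 h before luminescence at donor 450 nm and acceptor 600 nm, with extracellular signal inhibited. EC50 by sigmoidal variable-slope regression.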
Background: BRET reads energy transfer from a luciferase to a nearby fluorophore.
One may read the IC50 as the midpoint of a concentration-inhibition curve. For `C[S+]([O-])c1ccc2nc(-c3cccnc3N)n(-c3ccc(CN4CCC(Nc5ccnc(C#N)n5)CC4)cc3)c2n1` (centres unmarked) [Example 492, 4-((1-(4-(2-(2-Aminopyridin-3-yl)-5-(methylsulfinyl)-3H-imidazo[4,5-b]pyridin-3-yl)benzyl)piperidin-4-yl)amino)pyrimidine-2-carbonitrile], the IC50 lay in the range of 60 to 600 nM.
As to `N#Cc1nccc(N2C[C@H]3CN(Cc4ccc(-n5c(-c6cccnc6N)nc6ccc(-c7ccccc7)nc65)cc4)C[C@@H]3C2)n1` [Example 341, 4-((3aR,6aR)-5-(4-(2-(2-aminopyridin-3-yl)-5-phenyl-3H-imidazo[4,5-b]pyridin-3-yl)benzyl)hexahydropyrrolo[3,4-c]pyrrol-2(1H)-yl)pyrimidine-2-carbonitrile], the IC50 is below 15 nM.
Still for that read-out and setting: the result for `N#Cc1nccc(NC2CCN(Cc3ccc(-n4c(-c5cccnc5N)nc5cc(C#N)c(O)nc54)cc3)CC2)n1` [Example 599, 2-(2-Aminopyridin-3-yl)-3-(4-((4-((2-cyanopyrimidin-4-yl)amino)piperidin-1-yl)methyl)phenyl)-5-hydroxy-3H-imidazo[4,5-b]pyridine-6-carbonitrile] reads 600 to 10000 nM; that for `N#Cc1ccnc(N2CCN(Cc3ccc(-n4c(-c5cccnc5N)nc5ccc(C6CC6)nc54)cc3)CC2)n1` [Example 350, 2-(4-(4-(2-(2-Aminopyridin-3-yl)-5-cyclopropyl-3H-imidazo[4,5-b]pyridin-3-yl)benzyl)piperazin-1-yl)pyrimidine-4-carbonitrile], 15 to 60 nM.
On the same count and under the same terms, with `N#Cc1nccc(N2CCN(Cc3ccc(-n4c(-c5cccnc5N)nc5ccc(-c6ccncc6C#N)nc54)cc3)CC2)n1` [Example 399, 4-(4-(4-(2-(2-Aminopyridin-3-yl)-5-(3-cyanopyridin-4-yl)-3H-imidazo[4,5-b]pyridin-3-yl)benzyl)piperazin-1-yl)pyrimidine-2-carbonitrile] the figure was 15 to 60 nM; with `CCn1cc(-c2ccc3nc(-c4cccnc4N)n(-c4ccc(CN5CCC(Nc6ccnc(C#N)n6)CC5)cc4)c3n2)cn1` [Example 466, 4-((1-(4-(2-(2-Aminopyridin-3-yl)-5-(1-ethyl-1H-pyrazol-4-yl)-3H-imidazo[4,5-b]pyridin-3-yl)benzyl)piperidin-4-yl)amino)pyrimidine-2-carbonitrile], below 15 nM; with `N#Cc1nccc(NC2CCN(Cc3ccc(-n4c(-c5cccnc5N)nc5ccc(N6CCCC6)nc54)cc3)CC2)n1` [Example 510, 4-((1-(4-(2-(2-Aminopyridin-3-yl)-5-(pyrrolidin-1-yl)-3H-imidazo[4,5-b]pyridin-3-yl)benzyl)piperidin-4-yl)amino)pyrimidine-2-carbonitrile], below 15 nM.
The same measure, in the same setting: the result for `Cc1nn(C)cc1-c1ccc2nc(-c3cccnc3N)n(-c3ccc(CN4CCC(Nc5ccnc(C#N)n5)CC4)cc3)c2n1` [Example 539, 4-((1-(4-(2-(2-Aminopyridin-3-yl)-5-(1,3-dimethyl-1H-pyrazol-4-yl)-3H-imidazo[4,5-b]pyridin-3-yl)benzyl)piperidin-4-yl)amino)pyrimidine-2-carbonitrile] reads below 15 nM; that for `[2H]C([2H])([2H])Nc1ccc2nc(-c3cccnc3N)n(-c3ccc(CN4CCC(Nc5ccnc(C#N)n5)CC4)cc3)c2n1` [Example 459, 4-((1-(4-(2-(2-Aminopyridin-3-yl)-5-((methyl-d3)amino)-3H-imidazo[4,5-b]pyridin-3-yl)benzyl)piperidin-4-yl)amino)pyrimidine-2-carbonitrile], below 15 nM.
Turning to `N#Cc1ccnc(NC2CCN(Cc3ccc(-n4c(-c5cccnc5N)nc5ccc(-c6cccc(Cl)c6)nc54)cc3)CC2)n1` [Example 372, 2-((1-(4-(2-(2-Aminopyridin-3-yl)-5-(3-chlorophenyl)-3H-imidazo[4,5-b]pyridin-3-yl)benzyl)piperidin-4-yl)amino)pyrimidine-4-carbonitrile], the IC50 lay in the range of 15 to 60 nM.
Consider `CC(C)C(=O)Nc1cccc(-c2ccc3nc(-c4cccnc4NC(=O)C(C)C)n(-c4ccc(CN5CCC(Nc6ccnc(C#N)n6)CC5)cc4)c3n2)c1` [Example 519, N-(3-(3-(4-((4-((2-cyanopyrimidin-4-yl)amino)piperidin-1-yl)methyl)phenyl)-2-(2-isobutyramidopyridin-3-yl)-3H-imidazo[4,5-b]pyridin-5-yl)phenyl)isobutyramide], for which the IC50 fell in the range of 15 to 60 nM.
As to `N#Cc1ccnc(NC2CCN(Cc3ccc(-n4c(-c5cccnc5N)nc5ccc(-c6ccc(F)cc6)nc54)cc3)CC2)n1` [Example 352, 2-((1-(4-(2-(2-Aminopyridin-3-yl)-5-(4-fluorophenyl)-3H-imidazo[4,5-b]pyridin-3-yl)benzyl)piperidin-4-yl)amino)pyrimidine-4-carbonitrile], the half-inhibitory concentration (IC50) fell in the range of 15 to 60 nM.
With `COc1ccnc(-c2ccc3nc(-c4cccnc4N)n(-c4ccc(CN5CCC(Nc6ccnc(C#N)n6)CC5)cc4)c3n2)c1` [Example 437, 4-((1-(4-(2-(2-Aminopyridin-3-yl)-5-(4-methoxypyridin-2-yl)-3H-imidazo[4,5-b]pyridin-3-yl)benzyl)piperidin-4-yl)amino)pyrimidine-2-carbonitrile], the IC50 was below 15 nM.
With `N#Cc1nccc(NC2CCN(Cc3ccc(-n4c(-c5cccnc5N)nc5ccc(-c6ccc(C(F)F)cn6)nc54)cc3)CC2)n1` [Example 649, 4-((1-(4-(2-(2-Aminopyridin-3-yl)-5-(5-(difluoromethyl)pyridin-2-yl)-3H-imidazo[4,5-b]pyridin-3-yl)benzyl)piperidin-4-yl)amino)pyrimidine-2-carbonitrile], the IC50 was below 15 nM.
Same read-out and setting: with `[2H]C([2H])([2H])N(c1ccnc(C#N)n1)C1CCN(Cc2ccc(-n3c(-c4cccnc4N)nc4ccc(-c5ccc(F)cc5)nc43)cc2)CC1` [Example 441, 4-((1-(4-(2-(2-Aminopyridin-3-yl)-5-(4-fluorophenyl)-3H-imidazo[4,5-b]pyridin-3-yl)benzyl)piperidin-4-yl)(methyl-d3)amino)pyrimidine-2-carbonitrile] the figure was below 15 nM.
With `Cc1ccc(-c2ccc3nc(-c4cccnc4N)n(-c4ccc(CN5CCC(Nc6ccnc(C#N)n6)CC5)cc4)c3n2)cc1` [Example 529, 4-((1-(4-(2-(2-Aminopyridin-3-yl)-5-(p-tolyl)-3H-imidazo[4,5-b]pyridin-3-yl)benzyl)piperidin-4-yl)amino)pyrimidine-2-carbonitrile], the IC50 is below 15 nM.
In the case of `CN1CCN(c2ccc3nc(-c4cccnc4N)n(-c4ccc(CN5CCC(Nc6ccnc(C#N)n6)CC5)cc4)c3n2)CCC1=O` [Example 346, 4-((1-(4-(2-(2-Aminopyridin-3-yl)-5-(4-methyl-5-oxo-1,4-diazepan-1-yl)-3H-imidazo[4,5-b]pyridin-3-yl)benzyl)piperidin-4-yl)amino)pyrimidine-2-carbonitrile], the concentration for half-maximal inhibition (IC50) was in the range of 60 to 600 nM.
On the same count and under the same terms, with `Cn1cc(-c2ccc3nc(-c4cccnc4N)n(-c4ccc(CN5CCC(Nc6ccnc(C#N)n6)CC5)cc4)c3n2)cc1C#N` [Example 481, 4-((1-(4-(2-(2-Aminopyridin-3-yl)-5-(5-cyano-1-methyl-1H-pyrrol-3-yl)-3H-imidazo[4,5-b]pyridin-3-yl)benzyl)piperidin-4-yl)amino)pyrimidine-2-carbonitrile] the figure was below 15 nM.

Still in this assay, the particulars now being: competitive tracer displacement in living cells, read-out: AKT1 E17K IC50.
In the case of `N#Cc1ccnc(C(=O)N2CCN(Cc3ccc(-n4c(-c5cccnc5N)nc5ccc(-c6ccccc6)nc54)cc3)CC2)c1` [Example 140, 2-(4-(4-(2-(2-Aminopyridin-3-yl)-5-phenyl-3H-imidazo[4,5-b]pyridin-3-yl)benzyl)piperazine-1-carbonyl)isonicotinonitrile], the IC50 fell in the range of 60 to 600 nM.
In the case of `N#Cc1nccc(N2CCN(Cc3ccc(-n4c(-c5cccnc5N)nc5ccc(-c6ccccc6)nc54)cc3)CC23CC3)n1` [Example 198, 4-(7-(4-(2-(2-Aminopyridin-3-yl)-5-phenyl-3H-imidazo[4,5-b]pyridin-3-yl)benzyl)-4,7-diazaspiro[2.5]octan-4-yl)pyrimidine-2-carbonitrile], the IC50 is 15 to 60 nM.
As for `CC(=O)Nc1cccc(-c2ccc3nc(-c4cccnc4N)n(-c4ccc(CN5CCN(c6ccc(C#N)nc6)CC5)cc4)c3n2)c1` [Example 38, N-(3-(2-(2-Aminopyridin-3-yl)-3-(4-((4-(6-cyanopyridin-3-yl)piperazin-1-yl)methyl)phenyl)-3H-imidazo[4,5-b]pyridin-5-yl)phenyl)acetamide], the IC50 lay in the range of 60 to 600 nM.
The same measure, in the same setting: the result for `N#Cc1cccnc1C(=O)NC1CCN(Cc2ccc(-n3c(-c4cccnc4N)nc4ccc(-c5ccccc5)nc43)cc2)CC1` [Example 61, N-(1-(4-(2-(2-Aminopyridin-3-yl)-5-phenyl-3H-imidazo[4,5-b]pyridin-3-yl)benzyl)piperidin-4-yl)-3-cyanopicolinamide] reads below 15 nM; that for `CC(=O)Nc1cccc(-c2ccc3nc(-c4cccnc4N)n(-c4ccc(CN5CCN(c6cc(C#N)cnn6)CC5)cc4)c3n2)c1` [Example 45, N-(3-(2-(2-Aminopyridin-3-yl)-3-(4-((4-(5-cyanopyridazin-3-yl)piperazin-1-yl)methyl)phenyl)-3H-imidazo[4,5-b]pyridin-5-yl)phenyl)acetamide], 60 to 600 nM.
As to `N#Cc1ccc(C(=O)NCc2ccc(-n3c(-c4cccnc4N)nc4cccnc43)cc2)cn1` [Example 121, N-(4-(2-(2-Aminopyridin-3-yl)-3H-imidazo[4,5-b]pyridin-3-yl)benzyl)-6-cyanonicotinamide], the IC50 fell in the range of 600 to 10000 nM.
As for `N#Cc1ncnc(N2CCC3(CCN(Cc4ccc(-n5c(-c6cccnc6N)nc6ccc(-c7ccccc7)nc65)cc4)C3)CC2)n1` [Example 252, 4-(2-(4-(2-(2-Aminopyridin-3-yl)-5-phenyl-3H-imidazo[4,5-b]pyridin-3-yl)benzyl)-2,8-diazaspiro[4.5]decan-8-yl)-1,3,5-triazine-2-carbonitrile], the IC50 was 15 to 60 nM.
Same read-out and setting: with `N#Cc1ccnc(NC2CCN(Cc3ccc(-n4c(-c5cccnc5N)nc5ccc(-c6ccccc6)nc54)cc3)CC2)n1` [Example 90, 2-((1-(4-(2-(2-Aminopyridin-3-yl)-5-phenyl-3H-imidazo[4,5-b]pyridin-3-yl)benzyl)piperidin-4-yl)amino)pyrimidine-4-carbonitrile] the figure was below 15 nM.
